# Test results as given in publication PMC6838683, “Discovery of Human Signaling Systems: Pairing Peptides to G Protein-Coupled Receptors” (Cell, 2019).
# Where two headings read alike, the source gives them in different places. Residues, ends and D or L forms follow the SMILES beside them.
# Experiments:
# [1] = test system: 120 GPCR targets, including all available orphan receptors and 27 known class A peptide receptors; assay: Peptide library screen, β-arrestin recruitment (Tango, fold change, 10 μM); assay type: cell-based, human; conditions: Tango; receptor(s) at which the known library peptide was active, among its known GPCR target(s); validated pairings
# Description: (§1) The peptide library was additionally screened against 120 GPCR targets in parallel, including all available orphan receptors and 27 known class A peptide receptors using the Tango assay platform ([Kroeze et al., 2015]). Briefly, HTLA cells (a HEK293 cell line stably expressing a tTA-dependent luciferase reporter and a β-arrestin2-TEV fusion gene) were plated 10,000 cells/well in poly-L-lysine–coated clear-bottom white 384-well plates in DMEM supplemented with 10% FBS, 100 U/ml penicillin and 100 μg/ml streptomycin, 2 μg/ml puromycin and 100 μg/ml hygromycin B. 24 hr later, cells were transfected with Tango GPCR constructs using the calcium phosphate method ([Jordan et al., 1996]). The next day, culture medium was changed to DMEM + 1% dFBS and 10 μM peptides were added for overnight stimulation. Bright-Glo solution (Promega) was incubated for 15–20 min at room temperature, and luminescence was counted using a Trilux luminescence counter (Wallac).
# MRGPRX2 = molecular target: T1, MRGPRX2 (Homo sapiens, UniProt Q96LB1); assay: β-arrestin recruitment (Tango), known peptide receptors; assay type: cell-based; conditions: mean, n = 3
# T1 construct: host or cells: HTLA cells (HEK293-derived)
# T1 sequence (Q96LB1 1-330): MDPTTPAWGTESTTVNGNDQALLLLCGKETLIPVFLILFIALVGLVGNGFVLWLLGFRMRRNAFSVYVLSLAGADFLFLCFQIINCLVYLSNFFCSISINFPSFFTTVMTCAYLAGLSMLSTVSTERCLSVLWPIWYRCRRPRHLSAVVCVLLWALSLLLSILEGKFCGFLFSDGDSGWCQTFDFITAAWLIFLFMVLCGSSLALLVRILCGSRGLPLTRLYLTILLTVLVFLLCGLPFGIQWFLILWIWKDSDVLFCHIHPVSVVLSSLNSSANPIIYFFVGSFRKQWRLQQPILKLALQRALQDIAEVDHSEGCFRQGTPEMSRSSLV
# NPY5 = molecular target: T2, NPY5 (Homo sapiens, UniProt Q15761); assay: as above; assay type: cell-based; conditions: NPY5R, n = 3; for Comment, Tango (fold over basal): Emax and pEC50 n.d.
# T2 construct: host or cells: HTLA cells (HEK293-derived)
# T2 sequence (Q15761 1-445): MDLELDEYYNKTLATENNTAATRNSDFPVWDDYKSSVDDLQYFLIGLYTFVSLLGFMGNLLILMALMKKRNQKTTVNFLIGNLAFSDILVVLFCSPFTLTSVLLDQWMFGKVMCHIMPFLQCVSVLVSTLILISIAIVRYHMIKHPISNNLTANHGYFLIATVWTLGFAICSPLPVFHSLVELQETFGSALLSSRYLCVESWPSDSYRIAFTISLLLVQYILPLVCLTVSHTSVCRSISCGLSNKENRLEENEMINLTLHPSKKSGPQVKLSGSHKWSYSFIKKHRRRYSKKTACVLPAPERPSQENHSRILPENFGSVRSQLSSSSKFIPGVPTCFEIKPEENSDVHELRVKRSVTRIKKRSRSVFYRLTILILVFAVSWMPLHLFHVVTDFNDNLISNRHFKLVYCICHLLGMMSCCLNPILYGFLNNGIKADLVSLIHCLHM
# Description: as §1
# For subsequent peptide validation experiments using Tango assays, HTLA cells were transiently transfected in 10 cm dishes with the receptor of interest using polyethylenimine (PEI) ([Longo et al., 2013]). After 24 hr, 25,000 cells/well were plated in clear bottom, white-walled 384-well plates. Assays were performed as described above, with luminescence measured using an EnSpire 2300 Multimode plate reader (PerkinElmer). Luminescence counts were exported into Excel and were analyzed using GraphPad Prism 7.
# GPR68 [2] = molecular target: T3, GPR68 (Homo sapiens, UniProt Q15743); assay: GloSensor cAMP assay (Gs), allosteric operational model fitting; assay type: cell-based; parameters: expressed in transfected cells; host or cells: HEK293T, transient (PEI), co-transfected with GloSensor cAMP plasmid; conditions: for Log(ab/KB): allosteric operational model parameter, GPR68 GloSensor cAMP
# Description: GPR68-mediated cAMP signaling was measured using GloSensor cAMP assays as published previously ([Huang et al., 2015], [Yu et al., 2019]) with modifications as indicated below. Calcium- and magnesium-free HBSS was supplemented with different organic buffer reagents for different pH solutions, 20 mM 2-(N-morpholino)ethanesulfonic acid (MES, Alfa Aesar) for pH 6.00 – 6.70, 20 mM 4-(2-hydroxyethyl)-1-piperazineethanesulfonic acid (HEPES, Fisher) for pH 6.80 – 8.20, and 20 mM (tris(hydroxymethyl)methylamino)propanesulfonic acid (TAPS) for pH 8.30 – 8.60. The phosphodiesterase (PDE) inhibitor Ro 20-1724 (10 μM final, Cayman Chemical) was included in pH buffers to eliminate potential effect of PDE […]. HEK293T cells were transfected with a modified polyethylenimine (PEI, Polysciences) transfection method ([Longo et al., 2013]). For a 15-cm dish of HEK293T cells with 25 mL growth medium, 8 μg receptor DNA and 8 μg GloSensor DNA (Promega) were mixed in 1 mL of Opti-MEM medium followed by addition of 80 μL PEI reagents. The mixture was added to cells after 20 min incubation at room temperature. Overnight transfected cells were plated in poly-L-lysine (Sigma) coated 384-well white clear bottom plates (Greiner Bio-One, #781098) using DMEM (Corning) + 1% dialyzed FBS (Omega Scientific) for at least 6 h (up to 24 h). Cells were removed of medium before receiving 20 μL/well of 3.5 mM luciferin (Goldbio) prepared in assay buffer (HBSS, 20 mM TAPS, pH 8.40, 10 μM Ro 20-1724) for 1 h at 37°C. Luciferin loading solutions were removed and premixed drug solutions at desired pH conditions were added to cells (25 μL/well). Luminescence was measured 25-30 min after drug application. Results were normalized (basal and maximum responses in the absence of modulator were set to be 0 and 100%) and pooled for analysis using GraphPad Prism.
# All of the other parameters, including allosteric affinity cooperativity (α), allosteric modulator binding affinity KB, orthosteric agonist (protons) efficacy τA, system maximal response, and slope factor n were all globally shared for all datasets for each modulator. […] We therefore used an allosteric index, log(αβ/KB) ([Kenakin, 2017a]), which contains both allosteric binding affinity and cooperativity, to quantify the overall allosteric activity.
# Target sequence in this assay (Q15743 whole entry): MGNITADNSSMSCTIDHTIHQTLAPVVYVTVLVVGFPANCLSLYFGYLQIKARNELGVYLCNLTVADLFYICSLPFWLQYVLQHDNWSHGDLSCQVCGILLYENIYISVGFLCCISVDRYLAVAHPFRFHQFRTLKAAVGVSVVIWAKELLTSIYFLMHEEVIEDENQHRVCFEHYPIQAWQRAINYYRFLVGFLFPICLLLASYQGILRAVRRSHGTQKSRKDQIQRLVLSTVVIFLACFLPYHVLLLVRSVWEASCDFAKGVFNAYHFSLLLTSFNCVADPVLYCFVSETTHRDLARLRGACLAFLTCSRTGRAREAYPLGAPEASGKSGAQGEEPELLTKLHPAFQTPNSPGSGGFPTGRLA
# GPR15 = molecular target: T4, GPR15 (Homo sapiens, UniProt P49685); assay: cAMP inhibition (Gi/o), HTRF with forskolin; assay type: cell-based; conditions: mean
# T4 construct: hIL-2Ra signal peptide (N); expressed in transfected cells
# T4 sequence (P49685 2-360 limits assumed): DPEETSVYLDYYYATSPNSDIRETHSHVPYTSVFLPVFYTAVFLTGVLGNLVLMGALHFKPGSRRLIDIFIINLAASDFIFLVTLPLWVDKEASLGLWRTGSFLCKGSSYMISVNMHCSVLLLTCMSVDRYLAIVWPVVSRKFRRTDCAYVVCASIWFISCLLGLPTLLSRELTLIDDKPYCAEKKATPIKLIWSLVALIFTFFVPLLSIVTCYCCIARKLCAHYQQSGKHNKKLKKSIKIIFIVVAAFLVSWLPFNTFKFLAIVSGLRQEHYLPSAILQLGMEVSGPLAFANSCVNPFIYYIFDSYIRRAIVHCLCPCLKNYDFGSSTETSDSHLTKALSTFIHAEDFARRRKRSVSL
# Description: Peptide-dependent second messenger responses were measured using commercially available HTRF-based IP1 and cAMP kits (Cisbio) as described previously ([Nørskov-Lauritsen et al., 2014]). Receptor expression was induced for 48 hr with 0.1 μg/ml doxycycline in 10 cm dishes. For IP1 measurements (to measure Gq/11), 2,500 cells/well were mixed with ligands in triplicate wells in low volume white 384-well plates at 37°C for 30 min. For cAMP assays, 2,500 cells/well were added in triplicate wells in white 384-well plates in the absence or presence of 3 μM forskolin (to measure Gs and Gi/o activation respectively). 100 μM IBMX was included to prevent cAMP degradation during 30 min stimulation on a plate shaker at room temperature. For both assays, HTRF was measured using an EnVision 2104 Multimode plate reader (PerkinElmer).
# GPR68 [3] = molecular target: T3, GPR68; assay: Real-time receptor internalization (TR-FRET), concentration-response; assay type: cell-based; parameters: hIL-2Ra signal peptide (N); expressed in transfected cells; conditions: GPR68; real-time internalization; mean, SEM and n (3)
# Description: 48 hr prior to parallel assaying, SNAP-tagged oGPCR cells were plated (10,000 cells/well) in fibronectin-coated 384-well Epic biosensor microplates (Corning) and poly-D-lysine coated white 384-well plates (for internalization assays). SNAP- GLP-1 receptor was plated alongside orphan receptor cells as an internal assay control for internalization assays. Receptor-expression was induced with 0.1 μg/ml doxycycline.
# A TR-FRET real-time internalization assay was used to examine peptide-dependent changes in orphan receptor localization as described previously ([Foster and Bräuner-Osborne, 2018]). Surface-expressed SNAP-tagged receptors were labeled with a cell-impermeable luminescent terbium cryptate (100 nM SNAP Lumi4-Tb; Cisbio, France) for 1 hr at 37°C. Cells were washed to remove excess terbium and incubated with fluorescein-O-acetic acid (100 μM; Sigma Aldrich) for 5 min at 37°C. Peptides were added as for DMR assays, and internalization responses were recorded for 60 min at 37°C using an EnVision 2104 Multimode plate reader (PerkinElmer). 100 nM GLP-1 was used as a positive control for SNAP-GLP1R internalization. Real-time internalization responses were calculated based on TR-FRET (excitation 340 nm; emission 520 nm and 615 nm), and were expressed as the ratio between donor (terbium) and acceptor (fluorescein) emission. For peptide screening analysis (both DMR and internalization assays), we calculated the area under the curve from the real-time traces. As the magnitude of the responses was variable between orphan receptor targets, particularly for the SNAP-tag based internalization assay where the signal is dependent on receptor surface expression, the AUC values were normalized to their respective plate averages and expressed as fold change. Validation experiments for receptor internalization were performed as above. Internalization data was processed in MS-Excel and area under the curve was used to generate concentration-response curves using GraphPad Prism 7.0. Data represent mean ± standard error of the mean (SEM) from at least 3 biologically independent experiments.
# Target sequence in this assay (Q15743 2-365 limits assumed): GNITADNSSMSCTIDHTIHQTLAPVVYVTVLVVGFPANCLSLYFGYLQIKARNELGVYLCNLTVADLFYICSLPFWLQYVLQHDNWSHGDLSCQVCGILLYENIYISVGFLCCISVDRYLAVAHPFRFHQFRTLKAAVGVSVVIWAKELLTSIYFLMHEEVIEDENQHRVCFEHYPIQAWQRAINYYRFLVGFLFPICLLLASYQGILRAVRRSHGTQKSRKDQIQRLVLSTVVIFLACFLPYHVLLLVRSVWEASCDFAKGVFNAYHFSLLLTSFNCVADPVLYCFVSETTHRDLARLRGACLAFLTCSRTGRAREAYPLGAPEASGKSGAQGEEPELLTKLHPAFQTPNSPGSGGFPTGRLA
compound,measurement,setting,value
WYKHVASPRYHTVGRAAGLLMGL [Peptide 151],Active at: (activity in b-arrestin recruitment assays),[1],"NPBW1, NPBW2"
same,"Emax, Tango (fold over basal)",MRGPRX2,3.4 fold over basal
same,"pEC50, Tango (fold over basal)",MRGPRX2,4.73
MPHSFANLPLRF [Peptide 86],"Emax, Tango (fold over basal)",NPY5; mean,10.4 fold over basal
same,"pEC50, Tango (fold over basal)",NPY5; mean,5.44
same,Active at: (activity in b-arrestin recruitment assays),[1],NPFF1
VPNLPGRF [Peptide 36],"Comment, Tango (fold over basal)",NPY5,Response >1uM
CC[C@H](C)[C@H](NC(=O)[C@H](CCCNC(=N)N)NC(=O)[C@H](C)NC(=O)CNC(=O)[C@H](CCCCN)NC(=O)[C@H](CCCNC(=N)N)NC(=O)[C@@H](NC(=O)[C@H](C)NC(=O)[C@H](CS)NC(=O)[C@H](CCC(N)=O)NC(=O)[C@H](CCC(=O)O)NC(=O)CNC(=O)[C@H](C)NC(=O)[C@H](CC(=O)O)NC(=O)[C@H](CS)NC(=O)[C@H](CCSC)NC(=O)[C@@H]1CCCN1C(=O)[C@@H](NC(=O)[C@H](CCC(N)=O)NC(=O)CNC(=O)[C@@H](N)Cc1ccc(O)cc1)C(C)C)C(C)C)C(=O)O [Pepetide 139] (H-YGQVPMCDAGEQCAVRKGARI-OH; N-terminus assumed),Log(ab/KB),GPR68 [2]; replicate 1,5.24
same,Log(ab/KB),GPR68 [2]; replicate 2,5.36
same,Log(ab/KB),GPR68 [2]; replicate 3,5.40
same,Log(ab/KB),GPR68 [2]; replicate 4,5.40
same,Fold difference,GPR68 [2]; fold difference of ab/KB relative to Ogerin,1.28
Nc1nc(NCc2ccccc2)nc(-c2ccccc2CO)n1 [Ogerin],Log(ab/KB),GPR68 [2]; replicate 1,5.25
same,Log(ab/KB),GPR68 [2]; replicate 2,5.23
same,Log(ab/KB),GPR68 [2]; replicate 3,5.25
SQAFLFQPQRF [Peptide 75],"Comment, Tango (fold over basal)",NPY5,Response >1uM
same,Active at: (activity in b-arrestin recruitment assays),[1],NPFF1
CC(C)C[C@H](NC(=O)[C@H](C)NC(=O)CNC(=O)[C@@H]1CCCN1C(=O)[C@@H](NC(=O)[C@@H](NC(=O)[C@H](Cc1c[nH]c2ccccc12)NC(=O)[C@@H](N)CC(C)C)C(C)C)C(C)C)C(=O)N1CCC[C@H]1C(=O)N[C@@H](CCC(N)=O)C(=O)N[C@H](C(=O)O)C(C)C [64 resynthesized] (H-LWVVPGALPQV-OH),Emax,"GPR15; receptor GPR15, SEM and n (4), read-out: cAMP accumulation assays Emax (% FSK)",30.8%
CC(C)C[C@H](NC(=O)[C@H](C)NC(=O)CNC(=O)[C@@H]1CCCN1C(=O)[C@@H](NC(=O)[C@@H](NC(=O)[C@H](Cc1c[nH]c2ccccc12)NC(=O)[C@@H](N)CC(C)C)C(C)C)C(C)C)C(=O)N1CCC[C@H]1C(=O)N[C@@H](CCC(N)=O)C(=O)N[C@H](C(=O)O)C(C)C [GPR15L_(47-57)] (H-LWVVPGALPQV-OH),Emax,"GPR15; GPR15, SEM and n, read-out: Emax, cAMP (% FSK)",29.2%
FLWKDLQRVR [Peptide 56],"Emax, Tango (fold over basal)",MRGPRX2,4.9 fold over basal
same,"pEC50, Tango (fold over basal)",MRGPRX2,4.90
ATVRNEDKWKPLNNPRNRDLFFRRLQAYFK [Peptide 175],"Emax, Tango (fold over basal)",MRGPRX2,3.5 fold over basal
same,"pEC50, Tango (fold over basal)",MRGPRX2,4.67
QMAVKKYLAAVL [Peptide 84],"Emax, Tango (fold over basal)",MRGPRX2,7.0 fold over basal
same,"pEC50, Tango (fold over basal)",MRGPRX2,5.02
IQAQLKELRY [Peptide 49],"Comment, Tango (fold over basal)",NPY5,Response >1uM
RFGIPMDRIGRNRLSNSR [Peptide 128.1],Internalization assays Emax (AUC),GPR68 [3],2.0
